US10876096B2, “Cell culture medium for enhanced hepatocyte function” (Corning Incorporated, priority 2012, dated 2020)

What was measured:
[1] = test system: mRNA for drug metabolism enzymes and hepatic proteins; assay: Relative mRNA levels by real-time PCR in primary human hepatocytes; format: cell-based; conditions: 10 μM
Procedure: The effects of LEF, LFM, and LFM-A13 on gene expression are tested. Briefly, primary human hepatocytes cultured on collagen I coated surface are incubated with Corning hepatocyte medium containing vehicle control, 10 μM LEF, 10 μM LFM, and 10 μM LFM-A13, respectively. At the end of 48-hour incubation, total RNA is isolated and relative mRNA levels are quantified using real-time PCR. The results are shown in FIG. 6, where CYP is cytochrome P450 enzyme, SULT is sulfotransferase, UGT is UDP-glucuronosyltransferase, ABC is ATP-binding cassette transporters, AHR is aryl hydrocarbon receptor, CAR is constitutive androstene receptor, and PXR is pregnenolone x-receptor.
The effect of LFMA-13 on levels of mRNA encoding a wider variety of drug metabolism enzymes and other proteins of primary human hepatocytes is tested. Briefly, primary human hepatocytes cultured on collagen I coated surface are incubated with Corning hepatocyte medium containing vehicle control and 10 μM LFM-A13, respectively. At the end of 48-hour incubation, total RNA is isolated and relative mRNA levels are quantified using real-time PCR. The results are shown in FIG. 7, where ABC is ATP-binding cassette transporters, CYP is cytochrome P450 enzyme, SLC is solute carrier transporter, SULT is sulfotransferase, UGT is UDP-glucuronosyltransferase, GST is glutathione S-transferase, AHR is aryl hydrocarbon receptor, FOXO is forkhead box receptors, HNF is hepatic nuclear factor, NCO is nuclear receptor coactivator, NR is nuclear receptor, PPARGC1A is peroxisome proliferator-activated receptor gamma coactivator 1-alpha, RXR is retinoid X receptor, and VDR is vitamin D receptor.

[2] = test system: human embryonic stem cells (hESCs) derived hepatocytes; assay: Immunostaining of hepatic markers in hESC derived hepatocytes; format: cell-based; conditions: Corning hepatocyte medium, 10 μM, 7 days, versus absence (FIG. 9)
Procedure: The effects of LFM-A13 on human embryonic stem cells (hESCs) derived hepatocytes are evaluated. Briefly, hESCs are committed to the hepatocyte lineage using methods known to those skilled in the art and then are cultured in Corning hepatocyte medium in the presence or absence of 10 μM LFM-A13. After 7 days, the stem cell derived hepatocytes are immunostained with primary antibodies to detect expression of hepatocyte proteins; (b) to test for the presence of albumin (ALB), a hepatic precursor marker; and (c) to test for the presence of multidrug resistance-associated protein 2 (MRP2), a member of the superfamily of ATP-binding cassette (ABC) transporters and a marker for hepatic function. Nuclei of cells are counterestained with 4′,6-diamidino-2-phenylindole dihydrochloride (DAPI) to visualize all cells (FIG. a). As depicted, hESCs cultured in the absence of LFM-A13 (left column) have low levels of hepatic markers (ALB and MRP2). In contrast, hESCs cultured in the presence of LFM-A13 (right column) have higher levels of hepatic markers (ALB and MRP2).

[3] = test system: hepatic markers (ALB, AFP, CYP3A4, CYP7A1, PGC1a); assay: Real-time PCR mRNA expression of hepatic markers in differentiated hESCs; format: cell-based, human; conditions: collagen coated plates with or without Matrigel overlay (FIG. 11)
Procedure: The effect of LFM-A13 on rifampicin-induced CYP3A4 activity and on mRNA expression of a variety of hepatic markers is also determined on the differentiated hESCs. […] In FIG. 11, ALB is albumin, AFP is alpha-fetoprotein, CYP3A4 is cytochrome p450 3A4, CYP7A1 is cytochrome p450 7A1, and PGC1a is […] (COL=collagen I coated plate; MOL=Matrigel overlay).

[4] = molecular target: BTK (Homo sapiens, UniProt Q06187); conditions: reported, U.S. Pat. No. 6,303,652; cited from earlier work
[5] = test system: Polo-like kinase (PLK); conditions: stated as known; cited from earlier work
[6] = test system: liver cells; assay: Drug metabolism activity / global hepatic function of liver cells with other BTK inhibitors and PLK siRNA; format: cell-based
From the text: […] The broad enhancement of hepatic function seen with LFM-A13 is not observed with these structurally unrelated BTK inhibitors.

Chain of BTK (Q06187 whole entry, species assumed): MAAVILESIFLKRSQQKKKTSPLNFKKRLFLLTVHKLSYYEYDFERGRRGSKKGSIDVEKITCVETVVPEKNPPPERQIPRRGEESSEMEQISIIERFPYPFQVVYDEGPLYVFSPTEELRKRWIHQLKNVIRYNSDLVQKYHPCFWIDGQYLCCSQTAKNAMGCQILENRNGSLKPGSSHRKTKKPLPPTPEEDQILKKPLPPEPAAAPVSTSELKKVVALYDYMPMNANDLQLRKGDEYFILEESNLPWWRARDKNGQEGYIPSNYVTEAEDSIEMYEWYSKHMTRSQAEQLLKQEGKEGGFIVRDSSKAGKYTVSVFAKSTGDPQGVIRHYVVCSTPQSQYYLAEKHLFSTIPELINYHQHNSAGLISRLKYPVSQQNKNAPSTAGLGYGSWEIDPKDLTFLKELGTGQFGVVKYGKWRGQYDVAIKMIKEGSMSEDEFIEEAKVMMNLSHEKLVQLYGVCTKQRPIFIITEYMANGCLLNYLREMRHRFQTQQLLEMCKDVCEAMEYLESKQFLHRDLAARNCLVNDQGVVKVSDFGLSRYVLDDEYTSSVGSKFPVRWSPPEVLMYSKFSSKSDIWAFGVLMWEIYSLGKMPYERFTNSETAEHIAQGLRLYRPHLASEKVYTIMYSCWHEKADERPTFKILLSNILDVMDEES

C/C(O)=C(/C#N)C(=O)Nc1cc(Br)ccc1Br [LFM-A13, α-Cyano-β-Hydroxy-β-Methyl-N-(2,5-Dibrobophenyl)Propenamide]
AHR mRNA level ([1]; 48 h (FIG. 6)): greatly increased
CYP1A2 mRNA level ([1]; 48 h (FIG. 6)): greatly increased
CYP2B6 mRNA level ([1]; 48 h (FIG. 6)): greatly increased
CYP3A4 mRNA level ([1]; 48 h (FIG. 6)): greatly increased
UGT1A1 mRNA level ([1]; 48 h (FIG. 6)): greatly increased
mRNA levels of some of the ABC transporters ([1]; 48 h (FIG. 6)): greatly increased
mRNA levels of a wide variety of drug metabolism enzymes, including many CYPs ([1]; 48 h (FIG. 7)): increased levels
level of hepatic marker MRP2, immunostaining [2]: higher levels
level of hepatic marker albumin (ALB), immunostaining [2]: higher levels
expression of hepatic markers (mRNA) [3]: enhanced expression
BTK inhibition [4]: potent BTK inhibitor
PLK inhibition [5]: Polo-like kinase (PLK) inhibitor

CC1=C(O)C(=O)[C@@H]2O[C@@H]2C1=O [Terreic acid]
broad enhancement of hepatic function / global hepatic enhancement [6]: not observed
